Measurements published in publication PMC9971260 (Scientific Reports, 2023).
Where a name gives a salt, the structure may show the parent alone.

Tests used:
postoperative pain [1] = assay: pre- and post-treatment of postoperative pain (incisional model); format: in vivo, mouse; conditions: mice, pretreatment 5 mg/kg SC 2 h before surgery
Experimental: Twenty-eight (28) mice were randomly assigned to one of four treatment groups: vehicle (5 μL/g, SC) (n = 8), UK4b (20 mg/kg, SC) (n = 7), UK4b (10 mg/kg, SC) (n = 7), and morphine (5 mg/kg, SC) (n = 6). This experiment took place over 14 days. Animals underwent the same acclimation and baseline measurement for PWL and mechanical sensitization threshold as described in the section above on Days -4 to -1. On Day 0, surgery was performed as described above, but each animal received their first treatment two hours prior to surgery (-2 h). Two hours after surgery was complete, PWL was assessed, followed by measurement of mechanical sensitization threshold. Treatment continued once daily from Days 1 through 7. Two hours after drug treatment, PWL and mechanical sensitization threshold are measured. On Day 9, 48 h after the final treatment was administered on Day 7, PWL and mechanical threshold are assessed to follow-up with the animals after treatment ceases. The PWL (seconds) was graphed relative to time (days since surgery). Mechanical sensitization thresholds were graphed as 50% threshold (grams) versus time (days since surgery).

postoperative pain [2] = assay: post-treatment of postoperative pain (incisional model); format: in vivo, mouse; conditions: mice, 5 mg/kg SC daily Days 1 to 7
Experimental: Thirty-one (31) mice were randomly assigned to one of four treatment groups: vehicle (5 μL/g, SC) (n = 8), UK4b (20 mg/kg, SC) (n = 7), UK4b (10 mg/kg, SC) (n = 8), and morphine (5 mg/kg, SC) (n = 8). This experiment took place over 14 days. […] Similarly, four days before surgery, the animals began acclimation for one hour per day to the mechanical sensitization (allodynia) apparatus before assessment. Mechanical sensitization was measured with a series of 8 von Frey fiber filaments (0.008 g (1.65); 0.02 g (2.36); 0.07 g (2.83); 0.16 g (3.22); 0.4 g (3.61); 1.0 g (4.08); 2.0 g (4.31); 6.0 g (4.74); Stoelting, Wood Dale, IL) using a modified up-down method. For the algorithm, each filament is applied to the plantar surface of the hind paw for five times. If the mouse retracts that hind paw at least three times, that is considered a positive response to the filament, and the next applied filament would be weaker than the last. If the animal retracts the hind paw fewer than three times, this is a negative response, and the next stronger filament is applied. […] Two hours after surgery was complete, PWL was assessed, followed by measurement of mechanical sensitization threshold. […] On Day 9, 48 h after the final treatment was administered on Day 7, PWL and mechanical sensitization threshold were assessed to follow-up with the animals after treatment ceased. […]

[3] = system: carrageenan-induced paw edema and hyperalgesia; assay: pre-treatment of carrageenan-induced paw edema and hyperalgesia; conditions: rats
[4] = system: carrageenan-induced hyperalgesia; assay: post-treatment of carrageenan-induced hyperalgesia; format: in vivo, rat; conditions: rats
Experimental: The PWL of untreated rats from the pre-treatment carrageenan study were used as a negative control in this experiment, as well. […] One hind paw was randomly selected to be the observed paw for the entirety of the experiment. Prior to administration of a treatment, the baseline (-23 h) PWL was assessed as described above.
Twenty-three hours after administration of carrageenan, PWL was assessed (23 h) to confirm induction of hyperalgesia, and to establish the PWL prior to treatment. […] PWL was assessed relative to administration of treatment ([…], 48, 72, and 96 h), and two PWL measurements were taken at each time point for each rat.

[5] = set-up: method as in earlier work; conditions: cited from earlier work
COX-1 = conditions: read-out: IC50 against COX-1; cited from earlier work
[6] = mouse, in vivo, 50 mg/kg; cited from earlier work
COX-2 = conditions: cited from earlier work

**Q.** Which results are given for `CN1CC[C@]23c4c5ccc(O)c4O[C@H]2[C@@H](O)C=C[C@H]3[C@H]1C5` [morphine]?
**A.** postoperative allodynia (50% mechanical threshold) on Day 0 (postoperative pain [1]): did not significantly attenuate the postoperative allodynia; postoperative hyperalgesia (PWL) on Day 0 (postoperative pain [1]): significantly attenuating the postoperative hyperalgesia; postoperative allodynia (50% mechanical threshold) (postoperative pain [2]): significantly attenuated; postoperative hyperalgesia (PWL) (postoperative pain [2]): significantly attenuated

**Q.** For `NCC1(CC(=O)O)CCCCC1` [gabapentin], which “carrageenan-induced hyperalgesia (PWL)” value ([3]; pretreatment 100 mg/kg IP 1 h or 4 h before carrageenan) is on record?
**A.** similarly relieved the hyperalgesia, but 100 mg/kg gabapentin was not as effective as 10 mg/kg UK4b

**Q.** And the “carrageenan-induced hyperalgesia (PWL), post-treatment” value ([4]; 100 mg/kg IP 23 h after carrageenan)?
**A.** significantly relieved the pain

**Q.** Which plasma half-life [5] does the source give for `CCCCC[C@H](O)/C=C/[C@H]1[C@H](O)CC(=O)[C@@H]1C/C=C\CCCC(=O)O` [PGE2, prostaglandin E2] here?
**A.** 2.5 to 5 min

**Q.** With `Cc1ccc(-c2cc(C(F)(F)F)nn2-c2ccc(S(N)(=O)=O)cc2)cc1` [celecoxib] as the molecule, how does the stomach tissue damage [6] read?
**A.** caused stomach tissue damage in all mice

**Q.** For `CS(=O)(=O)c1ccc(C2=C(c3ccccc3)C(=O)OC2)cc1` [rofecoxib], which “IC50 against COX-2 (in words)” value (COX-2) is on record?
**A.** low-nanomolar

**Q.** With `COc1ccc2c3c1O[C@H]1C(=O)CC[C@@]4(O)[C@@H](C2)N(C)CC[C@]314` [oxycodone, Oxycodone hydrochloride] as the molecule, how does the “carrageenan-induced hyperalgesia (PWL)” value ([3]; pretreatment 5 mg/kg IP, at and after 23 h) read?
**A.** still significant pain

**Q.** And the “carrageenan-induced hyperalgesia (PWL)” value ([3]; pretreatment 5 mg/kg IP, within six hours after carrageenan injection)?
**A.** effectively relieved the pain

**Q.** And the “carrageenan-induced hyperalgesia (PWL), post-treatment” value ([4]; 5 mg/kg IP 23 h after carrageenan)?
**A.** significantly relieved the pain
